Patent publication US11180484B2, “Pyrazole derivatives as plasma kallikrein inhibitors” (KALVISTA PHARMACEUTICALS LIMITED, priority 2016, dated 2021)
≈ marks a conversion by molar mass, not a printed value. Where two headings read alike, the source gives them in different places.

Columns and labels:
[1] = Plasma protein binding (PPB), rapid equilibrium dialysis, rat plasma; type: in vitro ADME; settings: 5 μM test compound, dialysis 5 hrs at 37° C.
Description: The fraction unbound in plasma was determined using ThermoScientific™ Pierce™ Rapid Equilibrium Dialysis Technology (Single-Use plate with inserts, 8K MWCO). 5 μM test compound was spiked into human or rat plasma (300 μL) and dialysed against 146.5 mM phosphate buffer (500 μL) for 5 hrs at 37° C., shaking at 1200 rpm. Reference samples from the non-dialysed plasma were taken before the incubation to enable an assessment of recovery. Test compound concentrations were determined in plasma and buffer compartments by LCMS against a calibration curve. The fraction unbound in plasma was determined using standard methodology (Waters N J et al (2008) J Pharm Sci 97(10); 4586-95). Results are presented as percent plasma protein bound (% PPB).

Human Factor XIIa = Human Factor XIIa (Homo sapiens (Human), UniProt P00748); experiment: Factor XIIa inhibitory activity in vitro; type: biochemical; settings: 25° C., substrate H-DPro-Phe-Arg-AFC; read-out: IC50 (human FXIIa)
Chain of Human Factor XIIa (P00748 373-615): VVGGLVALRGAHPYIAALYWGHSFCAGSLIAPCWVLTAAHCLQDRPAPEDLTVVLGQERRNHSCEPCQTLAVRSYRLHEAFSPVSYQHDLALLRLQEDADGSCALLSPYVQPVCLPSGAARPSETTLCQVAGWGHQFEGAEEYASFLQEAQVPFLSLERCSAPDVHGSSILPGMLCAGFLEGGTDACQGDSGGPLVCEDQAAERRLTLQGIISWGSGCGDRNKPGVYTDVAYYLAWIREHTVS
Description: (§1) Human Factor XIIa (Enzyme Research Laboratories) was incubated at 25° C. with the fluorogenic substrate H-DPro-Phe-Arg-AFC and various concentrations of the test compound. Residual enzyme activity (initial rate of reaction) was determined by measuring the change in […] at 410 nm and the IC50 value for the test compound was determined.

Human FXIa = Human FXIa (Homo sapiens (Human), UniProt P03951); experiment: Determination of the % inhibition / IC50 for FXIa; type: biochemical; settings: for IC50: 25° C., substrate Z-Gly-Pro-Arg-AFC; for inhibition at 40 µM: read-out: % Inhibition @ 40 μM (human FXIa)
Chain of Human FXIa (P03951 388-625): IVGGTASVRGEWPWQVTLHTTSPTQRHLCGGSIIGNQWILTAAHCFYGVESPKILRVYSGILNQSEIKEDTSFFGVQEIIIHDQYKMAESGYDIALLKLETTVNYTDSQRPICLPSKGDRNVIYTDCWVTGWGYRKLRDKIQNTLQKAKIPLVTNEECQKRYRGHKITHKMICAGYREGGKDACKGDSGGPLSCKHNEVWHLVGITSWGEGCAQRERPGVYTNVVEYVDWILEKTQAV
Chain of Human FXIa (P03951 19-387): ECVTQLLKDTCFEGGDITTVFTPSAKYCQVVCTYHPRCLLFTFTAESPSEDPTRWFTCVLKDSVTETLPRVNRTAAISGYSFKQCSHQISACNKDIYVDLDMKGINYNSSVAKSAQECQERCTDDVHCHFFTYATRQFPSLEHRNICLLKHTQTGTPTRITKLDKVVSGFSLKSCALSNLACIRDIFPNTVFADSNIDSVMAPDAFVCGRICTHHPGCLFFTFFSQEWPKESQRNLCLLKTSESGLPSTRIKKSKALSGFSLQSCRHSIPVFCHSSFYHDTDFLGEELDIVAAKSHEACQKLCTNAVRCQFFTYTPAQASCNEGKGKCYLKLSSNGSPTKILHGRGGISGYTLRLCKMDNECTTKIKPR
Description: FXIa inhibitory activity in vitro was determined using standard published methods (see e.g. Johansen et al., Int. J. Tiss. Reac. 1986, 8, 185; Shori et al., Biochem. Pharmacol., 1992, 43, 1209; Sturzebecher et al., Biol. Chem. Hoppe-Seyler, 1992, 373, 1025). […]

Human plasma kallikrein [2] = molecular target: T1, Human plasma kallikrein (Homo sapiens (Human), UniProt P03952); experiment: Determination of the Ki for plasma kallikrein (mixed-model inhibition); type: biochemical; settings: for Ki: human plasma kallikrein, mixed-model inhibition equation; for Alpha: parameter of the mixed-model equation indicating mechanism of inhibition
T1 sequence (P03952 391-638): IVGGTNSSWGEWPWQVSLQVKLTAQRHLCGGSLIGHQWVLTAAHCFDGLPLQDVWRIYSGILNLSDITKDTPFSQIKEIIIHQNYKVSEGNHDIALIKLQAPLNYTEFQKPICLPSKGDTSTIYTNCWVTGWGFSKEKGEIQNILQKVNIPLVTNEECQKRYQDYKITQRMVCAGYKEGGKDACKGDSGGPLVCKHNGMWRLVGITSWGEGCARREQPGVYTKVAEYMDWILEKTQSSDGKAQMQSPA
T1 sequence (P03952 20-390): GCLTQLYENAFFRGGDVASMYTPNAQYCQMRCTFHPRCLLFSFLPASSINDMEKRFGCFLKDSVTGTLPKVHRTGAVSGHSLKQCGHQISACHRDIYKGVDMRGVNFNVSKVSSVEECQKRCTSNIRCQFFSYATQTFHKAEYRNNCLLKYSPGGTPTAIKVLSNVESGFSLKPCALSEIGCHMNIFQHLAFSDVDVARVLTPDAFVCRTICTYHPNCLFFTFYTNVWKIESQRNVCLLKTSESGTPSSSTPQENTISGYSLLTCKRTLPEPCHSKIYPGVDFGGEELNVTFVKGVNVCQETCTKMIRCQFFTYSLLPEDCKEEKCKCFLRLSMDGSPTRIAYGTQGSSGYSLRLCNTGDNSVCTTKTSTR
Description: Plasma kallikrein inhibitory activity in vitro was determined using standard published methods (e.g. Johansen et al., Int. J. Tiss. Reac. 1986, 8, 185; Shori et al., Biochem. Pharmacol., 1992, 43, 1209; Sturzebecher et al., Biol. Chem. Hoppe-Seyler, 1992, 373, 1025). […]. Residual enzyme activity (initial rate of reaction) was determined by measuring the change in fluorescence at 410 nm. The Ki value for the test compound was determined using the mixed-model inhibition equation (based on Equation 3.2 in: RA Copeland, Evaluation of Enzyme Inhibitors in Drug Discovery, Wiley 2005) in GraphPad Prism. The mixed model equation includes competitive, uncompetitive and noncompetitive inhibition as special cases and the parameter of Alpha to indicate mechanism of inhibition.

[3] = Pharmacokinetics following a single oral dose in male Sprague-Dawley rats; type: in vivo; settings: rat, single po dose (nominal 10 mg/kg; actual dose per row in column Dose po), 10% DMSO/10% cremophor/80% SWFI, plasma
Description: Pharmacokinetic studies of the compounds in Table 13 were performed to assess the pharmacokinetics following a single oral dose in male Sprague-Dawley rats. Two rats were given a single po dose of 5 mL/kg of a nominal 2 mg/mL (10 mg/kg) composition of test compound in vehicle. Following dosing, blood samples were collected over a period of 24 hours. Sample times were 5, 15 and 30 minutes then 1, 2, 4, 6, 8 and 12 hours. Following collection, blood samples were centrifuged and the plasma fraction analysed for concentration of test compound by LCMS.

Human plasma kallikrein [4] = molecular target: T1, Human plasma kallikrein; experiment: Determination of the IC50 for plasma kallikrein; type: biochemical; settings: 25° C., substrate H-DPro-Phe-Arg-AFC; read-out: IC50 (human PKal)
Description: as §1, with “plasma kallikrein (Protogen)” for “Factor XIIa (Enzyme Research Laboratories)”

[5] = Solubility in water and 0.1N HCl (aq); type: physicochemical; settings: thermodynamic from solid, incubated at 1 mg/mL, 37° C.
Description: Solubility was determined in water and 0.1N HCl (aq). Test compounds were incubated at 1 mg/mL for 24 hrs at 37° C. on a shaking platform (500 rpm). Samples were taken at 1, 4 and 24 hrs and centrifuged at 15,000 g for 10 min. Test compound concentration in the supernatant was determined by LCMS against a standard curve.

[6] = Intrinsic clearance in rat liver microsomes; type: in vitro ADME; settings: rat liver microsomes 0.5 mg/mL, 5 μM test compound, 37° C.; read-out: rat liver microsome (Clint μL/min/mg protein)
Description: (§2) Rat or human liver microsomes (0.5 mg/mL; Corning) were incubated with 5 μM test compound at 37° C. on a shaking platform (150 rpm). Samples were taken at 0, 6, 12, 18, 24 and 60 min and test compound concentrations were determined by LCMS against a calibration curve.

[7] = Predicted plasma clearance (Clp), well-stirred model, rat; type: in vitro ADME; settings: percentage of hepatic blood flow
Description: (§3) The predicted plasma clearance (Clp) is calculated using the well-stirred model (Rowland M, Benet L Z, and Graham G G. Clearance concepts in pharmacokinetics. J Pharmacokinet Biopharm. (1973) 1:123-136.), one of several models that can be used to extrapolate the in vitro data. The model assumes instantaneous and complete mixing of drug within the liver and is a function of intrinsic clearance, hepatic blood flow and free fraction of drug in the blood. The predicted plasma clearance in mL/min/kg is presented as a percentage of hepatic blood flow (LBF).

Human KLK1 = Human KLK1 (Homo sapiens (Human), UniProt P06870); experiment: Determination of the IC50 for KLK1; type: biochemical; settings: 25° C., substrate H-DVal-Leu-Arg-AFC
Chain of Human KLK1 (P06870 25-262): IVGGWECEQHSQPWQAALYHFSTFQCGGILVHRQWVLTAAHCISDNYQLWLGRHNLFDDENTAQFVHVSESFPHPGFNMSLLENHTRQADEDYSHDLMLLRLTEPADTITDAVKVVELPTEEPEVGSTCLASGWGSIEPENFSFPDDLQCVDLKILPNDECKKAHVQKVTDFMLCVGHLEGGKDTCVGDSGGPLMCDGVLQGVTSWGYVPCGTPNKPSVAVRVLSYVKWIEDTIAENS
Description: as §1, with “KLK1 (Callbiochem)” for “Factor XIIa (Enzyme Research Laboratories)”, “H-DVal-Leu-Arg-AFC” for “H-DPro-Phe-Arg-AFC”

[8] = Predicted plasma clearance (Clp), well-stirred model, human; type: in vitro ADME; settings: percentage of hepatic blood flow
Description: as §3

[9] = Plasma protein binding (PPB), rapid equilibrium dialysis, human plasma; type: in vitro ADME; settings: 5 μM test compound, dialysis 5 hrs at 37° C.
Description: The fraction unbound in plasma was determined using ThermoScientific™ Pierce™ Rapid Equilibrium Dialysis Technology (Single-Use plate with inserts, 8K MWCO). […] Reference samples from the non-dialysed plasma were taken before the incubation to enable an assessment of recovery. Test compound concentrations were determined in plasma and buffer compartments by LCMS against a calibration curve. […] Results are presented as percent plasma protein bound (% PPB).

thrombin = thrombin (Homo sapiens (Human), UniProt P00734); experiment: Determination of enzyme selectivity: thrombin; type: biochemical; settings: substrate at Km concentration
Description: (§4) Human serine protease enzymes plasmin, thrombin and trypsin were assayed for enzymatic activity using an appropriate fluorogenic substrate. Protease activity was measured by monitoring the accumulation of liberated fluorescence from the substrate over 5 minutes. The linear rate of fluorescence increase per minute was expressed as percentage (%) activity. The Km for the cleavage of each substrate was determined by standard transformation of the Michaelis-Menten equation.

[10] = In vitro permeability, Caco-2 model for oral absorption; type: in vitro ADME; settings: human, apical to basolateral, 50 μM test compound, 37° C.
Description: In vitro permeability was determined using the Caco-2 model for oral absorption. The methodology was adapted from standard published methods (Wang Z, Hop C. E., Leung K. H. and Pang J. (2000) J Mass Spectrom 35(1); 71-76). The Caco-2 monolayers were established in a Biocoat™ HTS fibrillar collagen 24 well multiwell insert system (1.0 μm, PET membrane, Corning 354803) in which 200,000 cells were seeded into each insert and maintained over 3 days before being utilised in the permeability assay. For the assay, 50 μM test compound is added to the apical side of the inserts and incubated for 1 hour at 37° C. on a shaking platform (120 rpm). Apical to basolateral transport was determined by measuring the test article in both compartments by LCMS following the 1 hour incubation. The integrity of the Caco-2 monolayers was confirmed by two methods, (i) comparison of pre- and post-experiment transepithelial electrical resistance (TEER) and, (ii) assessment of Lucifer Yellow flux.

trypsin = experiment: Determination of enzyme selectivity: trypsin; type: biochemical, human; settings: substrate at Km concentration
plasmin = plasmin (Homo sapiens (Human), UniProt P00747); experiment: Determination of enzyme selectivity: plasmin; type: biochemical; settings: substrate at Km concentration
Chain of plasmin (P00747 581-810): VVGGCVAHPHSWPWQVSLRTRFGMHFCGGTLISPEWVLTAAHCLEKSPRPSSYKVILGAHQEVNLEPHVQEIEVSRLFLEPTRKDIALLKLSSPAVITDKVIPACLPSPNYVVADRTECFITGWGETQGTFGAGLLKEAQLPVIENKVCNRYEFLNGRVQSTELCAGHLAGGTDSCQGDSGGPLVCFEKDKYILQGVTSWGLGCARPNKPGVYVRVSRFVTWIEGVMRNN
Chain of plasmin (P00747 97-580): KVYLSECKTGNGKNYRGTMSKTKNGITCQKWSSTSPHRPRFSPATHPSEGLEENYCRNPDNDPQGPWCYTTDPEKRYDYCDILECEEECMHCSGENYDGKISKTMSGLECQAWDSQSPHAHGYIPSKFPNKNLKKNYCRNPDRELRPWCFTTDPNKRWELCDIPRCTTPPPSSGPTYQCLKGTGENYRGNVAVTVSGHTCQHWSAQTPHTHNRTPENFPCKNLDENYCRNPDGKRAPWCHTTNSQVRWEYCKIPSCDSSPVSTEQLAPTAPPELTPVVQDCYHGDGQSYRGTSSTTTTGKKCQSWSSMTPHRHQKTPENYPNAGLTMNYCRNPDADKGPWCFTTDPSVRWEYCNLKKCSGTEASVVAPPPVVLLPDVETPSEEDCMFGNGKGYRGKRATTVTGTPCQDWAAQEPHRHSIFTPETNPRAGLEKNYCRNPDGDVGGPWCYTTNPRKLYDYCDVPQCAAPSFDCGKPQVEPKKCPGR
Description: as §4

[11] = Intrinsic clearance in human liver microsomes; type: in vitro ADME; settings: human liver microsomes 0.5 mg/mL, 5 μM test compound, 37° C.; read-out: Human liver microsome (Clint μL/min/mg protein)
Description: as §2

[12] = simulated gastric fluid, 0.1N HCl (aq), read-out: Solubility 0.1N HCl (aq)
[13] = water, read-out: Solubility Water

Compound | fraction unbound at 5 h, 5 μM [1] | IC50 (Human Factor XIIa) [nM] | IC50 (Human FXIa) [nM] | Ki (Human plasma kallikrein [2]) [nM] | Alpha (Human plasma kallikrein [2]) | Cmax [3] [ng/mL] | Tmax [3] [h] | IC50 (Human plasma kallikrein [4]) [nM] | solubility [5, 12] [µg/mL] | solubility [5, 13] [µg/mL] | microsomal CLint at 5 μM [6] [µL/min/mg] | Predicted in vivo rat Clp (% LBF) [7] [% LBF] | IC50 (Human KLK1) [nM] | Predicted in vivo human Clp (% LBF) [8] [% LBF] | fraction unbound at 5 h, 5 μM [9] | Papp at 1 h, 50 μM [10] [×10⁻⁶ cm/s] | inhibition at 40 µM (Human FXIa; 40 μM test compound) [%] | microsomal CLint at 5 μM [11] [µL/min/mg] | also measured
COCc1nn(Cc2ccc(Cn3ccccc3=O)cc2)cc1C(=O)NCc1nccc(OC)c1C [Example 22, N-[(4-methoxy-3-methylpyridin-2-yl)methyl]-3-(methoxymethyl)-1-({4-[(2-oxopyridin-1-yl)methyl]phenyl}methyl)pyrazole-4-carboxamide] | < 0.01 | > 40000 | > 40000 | 1.9 | 29 | 1020 | 1 | 4.9 | 900 (≈ 1850 µM) | 60 (≈ 123 µM) | 68 | <1.6 | > 40000 | 7 | 0.08 |  |  |  | inhibition at 40 µM (Human FXIa): 5%
COCc1nn(Cc2ccc(Cn3ccccc3=O)cc2)cc1C(=O)NCc1ccccc1-n1cnnn1 [Example 74, 3-(methoxymethyl)-1-({4-[(2-oxopyridin-1-yl)methyl]phenyl}methyl)-N-{[2-(1,2,3,4-tetrazol-1-yl)phenyl]methyl}pyrazole-4-carboxamide] |  | > 40000 | > 40000 |  |  |  |  | 17.6 |  |  |  |  | > 40000 |  |  | 2 | 8 |  | IC50 (thrombin): > 40000 nM; IC50 (trypsin): > 40000 nM; IC50 (plasmin): > 40000 nM
COCc1nn(Cc2ccc(N3CCCC3)nc2)cc1C(=O)NCc1c(-n2cnnn2)ccc(OC)c1F [Example 77, N-{[2-fluoro-3-methoxy-6-(1,2,3,4-tetrazol-1-yl)phenyl]methyl}-3-(methoxymethyl)-1-{[6-(pyrrolidin-1-yl)pyridin-3-yl]methyl}pyrazole-4-carboxamide] | < 0.01 | > 40000 | 235 | 0.17 | 4.2 | 845 | 1.5 | 1.4 |  |  | 82 | <2.0 | > 40000 | 3 | 0.03 | 28 | 100 | 29 | 
COCc1nn(Cc2cnc(N3CCC(F)(F)C3)nc2)cc1C(=O)NCc1c(-n2cnnn2)ccc(OC)c1F [Example 86, 1-{[2-(3,3-Difluoropyrrolidin-1-yl)pyrimidin-5-yl]methyl}-N-{[2-fluoro-3-methoxy-6-(1,2,3,4-tetrazol-1-yl)phenyl]methyl}-3-(methoxymethyl)pyrazole-4-carboxamide] | 0.03 | > 40000 | 477 | 0.28 | 2.78 | 981 | 0.5 | 1.7 | 50 (≈ 89.5 µM) | 1 (≈ 1.79 µM) | 35 | 3 | > 40000 | 2 | 0.1 | 16 | 99 | 4 | 
COCc1nn(Cc2ccc(Cn3ccccc3=O)cc2)cc1C(=O)NCc1c(F)cccc1-n1cnnn1 [Reference Example H, N-{[2-Fluoro-6-(1,2,3,4-tetrazol-1-yl)phenyl]methyl}-3-(methoxymethyl)-1-({4-[(2-oxopyridin-1-yl)methyl]phenyl}methyl)pyrazole-4-carboxamide, reference compound] | 0.13 | > 40000 | > 40000 | 0.52 | 108 |  |  | 1.1 |  |  | 94 | 26 | > 40000 | 14 | 0.16 | 12 |  | 25 | 
